In data set [1] the test system is mice. As to the kind of experiment: Maximal electroshock (MES) seizure test. The data set is classed as in vivo. As to conditions: for responders at 100 mg/kg / ED50: Mus musculus, ip; for responders at 100 mg/kg: read-out: MES: number of mice protected/number of mice tested (converted); for ED50: mice, pretreatment 0.5 h. An excerpt: (§1) Identification and profiling of new ASM candidate compounds are still largely based on predictive animal models of seizures/epilepsy, while a range of in silico and in vitro approaches (i.e., molecular modeling or high throughput screening, etc.) are increasingly used in the early stages of ASM discovery.[31] The Epilepsy Therapy Screening Program (ETSP) of the National Institute of Neurological Disorders and Stroke (NIH, Bethesda, MD) has enabled the discovery of several approved ASMs by focusing on the in vivo testing of compounds synthesized by both academic laboratories and industry.[32] The ETSP provides a broad panel of seizure tests (ca. 30 rodent models), but a subset of them is used for the initial screening of new compounds with potential antiseizure activity. The routinely used seizure models include: (i) the MES test, which is an experimental model of tonic–clonic seizures, (ii) the 6 Hz model (32 mA) of focal seizures, and (iii) the scPTZ model of generalized absence or myoclonic seizures.[33],[34] Consequently, in the current studies, all final compounds 21–36 and 45–48 were initially studied in the MES and the 6 Hz (32 mA) seizure models after intraperitoneal (i.p.) administration at a screening dose of 100 mg/kg in mice at a time point of 0.5 h (the screening group consisted of four mice, and the results obtained are summarized in Table S1).
(§2) These parameters were then used to calculate the protective indexes (PIs, PI = TD50/ED50), which describe the therapeutics window of potential drug candidates. The ED50, TD50, and PI values for the tested compounds together with data of their chemical prototypes KA-11 and KJ-5 and reference ASMs are summarized in Table 2.
(§3) The adult male Albino Swiss mice weighed between 22 and 26 g were used in the in vivo studies. They were housed under standardized housing conditions in colony cages and had free access to food as well as tap water. The animals were left to adapt under laboratory conditions for 7 days. All procedures involving animals and their care were performed in accordance with the current European Community and Polish legislation on animal experimentation.
(§4) In the initial screening studies, four mice per group were randomly assigned to each experimental group (each mouse was used only once). To evaluate the ED50 or TD50 values, four groups consisting of eight animals were injected with various doses of tested compounds. The protective indexes (PIs) for the compounds investigated and reference ASMs were calculated by dividing the TD50 value, as determined in the chimney test, by the respective ED50 value, as determined in the MES, scPTZ, or 6 Hz (32 or 44 mA) tests (PI = TD50/ED50). The PIs are a measure of the potential therapeutic window of the tested agent.
(§5) All substances were suspended in Tween 80 (1% aqueous solution) and administered i.p. as a single injection at a dose of 10 mL/kg. On each day of experimentation, fresh solutions were prepared. The detailed in vivo procedures are described elsewhere: the maximal electroshock seizure test (MES),[60] the subcutaneous pentylenetetrazole seizure test (scPTZ),[61] the 6 Hz psychomotor seizure model (32 and 44 mA),[62] and the chimney test.[63] The reference ASMs were purchased from commercial suppliers: VPA (Sigma-Aldrich, St. Louis, MO), LCS, and LEV (UCB Pharma, Braine l’Alleud, Belgium).

Data set [2] deals with mice. As to the kind of experiment: 6 Hz (32 mA) psychomotor seizure model. In kind it is in vivo. The conditions noted are these: Mus musculus, ip; for responders at 100 mg/kg: 100 mg/kg i.p., 0.5 h; for ED50: mice, pretreatment 0.5 h.
Description: as §1, §2, §3, §4, §5

The test system of data set [3] is mice. As to the kind of experiment: Subcutaneous pentylenetetrazole (scPTZ) seizure test. The data set is classed as in vivo. The conditions noted are these: 100 mg/kg i.p.; for scPTZ: number of mice protected/number of mice tested: 0.5 h.
Description: as §2, §4, §5

Data set [4] has as its target T1, TRPV1 (VR1) (h) (Homo sapiens, UniProt Q8NER1).
T1 construct: Eurofins (contract assay)
The experiment in a line: TRPV1 antagonist effect functional assay. In kind it is cell-based. As to conditions: human recombinant CHO cells; for inhibition at 10 µM: read-out: % inhibition of control agonist response. How it is done: For many years, the TRPV1 channel, permeable to calcium and sodium ions, has been recognized as a promising molecular target for novel analgesics.[19] […] Therefore, bearing in mind the involvement of TRPV1 in pain sensation and potentially in seizure induction, in the next step of the in vitro studies, the TRPV1 antagonist activity was determined for all compounds obtained (Table 6).
Binding/functional studies were carried out commercially in Eurofins Laboratories (Poitiers, France) and Eurofins Panlabs Discovery Services Taiwan, Ltd. (New Taipei City, Taiwan) using testing procedures that were reported previously (for details, see Table S2).
Table S2. Radioligand binding and functional assays. […]
TRPV1 (VR1) (h) (antagonist effect) […]
Assays were performed commercially in Eurofins Laboratories ( Poitiers, France) or Eurofins Panlabs Discovery Services
Taiwan, Ltd. (New Taipei City, Taiwan).

[5] abbreviates: four mice, read-out: protection in 6 Hz (32 mA) screening.
[6] abbreviates: read-out: 6 Hz (32 mA): number of mice protected/number of mice tested (converted).

A word on the ED50: it is the dose at which the effect has come halfway, by size or by number of responders. The inhibition is the relative decrease from the control value, in per cent. What is called melting point is the temperature, or range, at which the solid turns liquid. What is called Kb is the affinity of an antagonist, worked out from how it opposes an agonist.

T1 sequence (Q8NER1 whole entry): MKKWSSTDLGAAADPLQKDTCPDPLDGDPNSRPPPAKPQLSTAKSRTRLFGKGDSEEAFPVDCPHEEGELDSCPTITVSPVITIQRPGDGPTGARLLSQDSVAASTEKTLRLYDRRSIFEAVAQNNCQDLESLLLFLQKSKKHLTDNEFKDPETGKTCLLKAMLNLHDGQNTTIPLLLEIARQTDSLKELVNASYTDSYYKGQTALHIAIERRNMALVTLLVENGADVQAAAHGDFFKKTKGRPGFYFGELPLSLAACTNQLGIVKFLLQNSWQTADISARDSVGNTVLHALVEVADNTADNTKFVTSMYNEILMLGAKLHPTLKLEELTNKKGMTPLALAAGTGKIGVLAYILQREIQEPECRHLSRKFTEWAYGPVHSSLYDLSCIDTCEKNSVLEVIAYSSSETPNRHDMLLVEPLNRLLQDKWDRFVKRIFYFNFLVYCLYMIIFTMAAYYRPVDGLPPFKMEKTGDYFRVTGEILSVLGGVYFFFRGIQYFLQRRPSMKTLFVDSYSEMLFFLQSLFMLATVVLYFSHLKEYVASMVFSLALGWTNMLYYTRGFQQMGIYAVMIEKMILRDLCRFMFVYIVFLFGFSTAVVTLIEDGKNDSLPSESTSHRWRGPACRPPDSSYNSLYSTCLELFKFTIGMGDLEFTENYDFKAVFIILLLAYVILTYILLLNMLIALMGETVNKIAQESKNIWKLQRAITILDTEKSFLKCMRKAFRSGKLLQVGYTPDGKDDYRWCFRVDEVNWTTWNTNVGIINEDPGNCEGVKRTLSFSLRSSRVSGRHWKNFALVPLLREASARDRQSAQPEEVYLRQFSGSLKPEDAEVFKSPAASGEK

As to `CC(=O)NC(C)C(=O)N1CCN(c2cc(Cl)cc(Cl)c2)CC1` (centres unmarked) [Compound 25, N-(1-(4-(3,5-Dichlorophenyl)piperazin-1-yl)-1-oxopropan-2-yl)acetamide], the melting point was in the range of 164.6 to 165.4 °C. The “antiseizure protection in MES screening” value in data set [1] (100 mg/kg i.p., 0.5 h, four mice) amounted to 75%. For the same molecule, the responders at 100 mg/kg in data set [1] (100 mg/kg i.p., 0.5 h) was 75%. The ED50 in data set [1] was 52.9 mg/kg. Further, the responders at 100 mg/kg in data set [2] (setting [5]) turned out to be 75%. The responders at 100 mg/kg in data set [2] (setting [6]) was 75%. In addition, the ED50 in data set [2] came to 56.1 mg/kg. In addition, in data set [3], the “protection in scPTZ screening” value is given as 50% and the “scPTZ: number of mice protected/number of mice tested” value is recorded as 2/4. Moreover, the inhibition at 10 µM in data set [4] is 8.1%.
Consider `CC(=O)NC(C)C(=O)N1CCN(c2cccc(Oc3ccccc3)c2)CC1` (centres unmarked) [Compound 29, N-(1-oxo-1-(4-(3-Phenoxyphenyl)piperazin-1-yl)propan-2-yl)acetamide], for which the melting point was 133.6 to 134.3 °C. In addition, the responders at 100 mg/kg in data set [1] (100 mg/kg i.p., 0.5 h) is 100%. Besides, the ED50 in data set [1] was 39.9 mg/kg. The responders at 100 mg/kg in data set [2] (setting [5]) was determined as 75%. Further, the responders at 100 mg/kg in data set [2] (setting [6]) is 75%. Further, the ED50 in data set [2] was determined as 41.2 mg/kg. For the same molecule, in data set [3], the “protection in scPTZ screening” value is listed as “no activity” and the “scPTZ: number of mice protected/number of mice tested” value is on record as 0/4. In data set [4], the inhibition at 10 µM was found to be 104% and the antagonist dissociation constant (Kb) came out at 4.2 µM.
`CC(=O)NC(C)C(=O)N1CCN(c2cccc(SC(F)(F)F)c2)CC1` (centres unmarked) [Compound 30, N-(1-oxo-1-(4-(3-((Trifluoromethyl)thio)phenyl)piperazin-1-yl)propan-2-yl)acetamide]: the melting point was in the range of 110.9 to 111.7 °C. Besides, the responders at 100 mg/kg in data set [1] (100 mg/kg i.p., 0.5 h) is 100%. The 50% effective dose (ED50) in data set [1] was 45.3 mg/kg. Moreover, the responders at 100 mg/kg in data set [2] (setting [5]) amounted to 100%. In addition, in data set [2] (setting [6]), the responders at 100 mg/kg was 100%. Further, the 50% effective dose (ED50) in data set [2] was 39.1 mg/kg. In data set [3], the “protection in scPTZ screening” value is given as 50% and the “scPTZ: number of mice protected/number of mice tested” value is listed as 2/4. In data set [4], the inhibition at 10 µM is 12%.

These data come from article PMC11157491, “Novel Alaninamide Derivatives with Drug-like Potential for Development as Antiseizure and Antinociceptive Therapies—In Vitro and In Vivo Characterization” (ACS Chemical Neuroscience, 2024).
